Where two headings read alike, the source gives them in different places.

Data set [1] is described as follows: Deposition of the ultraviolet absorber as powder on the surface of the detecting device. In kind it is physicochemical. Conditions: absorber solution in 50 ml acetone or water, device manufactured and dried.
The conditions of data set [2]: 25° C.
Data set [3] can be described thus: Ultraviolet absorbing ability dissolved in a solvent (spectrum of transmitted light). The data set is classed as physicochemical. How it is done: For example, when equal amounts of 2-hydroxy-4-methoxybenzophenone-5-sulfonic acid trihydrate and 4-dodecyloxy-2-hydroxybenzophenone are added, the ultraviolet absorbing ability of 4-dodecyloxy-2-hydroxybenzophenone is 1.25 times that of 2-hydroxy-4-methoxybenzophenone-5-sulfonic acid trihydrate on the average in a wavelength region of 300 to 400 nm.
Although the addition amount of 2-hydroxy-4-methoxybenzophenone-5-sulfonic acid trihydrate is 0.8 g and that of 4-dodecyloxy-2-hydroxybenzophenone is 0.5 g, i.e., there is a difference between the addition amounts, it is impossible to explain why the large difference is produced between the changes in absorbance by ultraviolet radiation when they are applied to ozone detecting devices. Note that the ultraviolet absorbing ability of an ultraviolet absorber is proportional to the addition amount. When dissolved in a solvent, therefore, the absorbing ability of 0.8 g of 2-hydroxy-4-methoxybenzophenone-5-sulfonic acid trihydrate is about 1.3 times that of 0.5 g of 4-dodecyloxy-2-hydroxybenzophenone.

Data set [4] in a line: Ultraviolet exposure test with Artificial Sunlight XC-100AF (no UV filter), reflected-light absorbance at about 618 nm. Conditions: dye used instead of indigo carmine, with ultraviolet absorber. The data set is classed as physicochemical. How it is done:
An ultraviolet exposure test (experiment) in which the ozone detecting devices A to G described above are irradiated with ultraviolet light is conducted. In this test, the influence of ultraviolet light was evaluated by using Artificial Sunlight XC-100AF available from SERIC with no UV filter attached. The incident angle of illuminating light to each of ozone detecting devices A to G was set at 20°, the distance from the lower end of the artificial sunlight to each of ozone detecting devices A to G was set at 110 cm, and each of ozone detecting devices A to G was set in a central portion where the intensity of the illuminating light is highest.
Each of ozone detecting devices A to G described above was irradiated with ultraviolet light minute by minute for 1 to 5 min, and the reflected light from the ozone detecting device was measured with a spectrophotometer whenever the device was irradiated. The influence of ultraviolet light was evaluated by using the change in absorbance at a wavelength of about 618 nm as an index.

For data set [5] the following is noted: other water-soluble ultraviolet absorbers, temperature not given; cited from earlier work.

For `CC(C)(C)c1ccc(O)c(-n2nc3ccccc3n2)c1` [2-(2-hydroxy-5-t-butylphenyl)-2H-benzotriazole], the “deposition in the form of powder on the surface of the device” value (“deposition in the form of powder” for short) in data set [1] is “deposits in the form of powder”.

Turning to `CCC(C)(C)c1cc(-n2nc3ccccc3n2)c(O)c(C(C)(C)CC)c1` [2-(3,5-di-t-pentyl-2-hydroxyphenyl)-2H-benzotriazole], the “deposition in the form of powder” value in data set [1] is “deposits in the form of powder”.

For the compound `COc1cc(O)c(C(=O)c2ccccc2)cc1S(=O)(=O)[O-].[Na+]` [2-hydroxy-4-methoxybenzophenone-5-sodium sulfonate], the “deposition in the form of powder” value in data set [1] is listed as “none of these ultraviolet absorbers deposited in the form of powder”. For the same compound, in data set [2], the water solubility result is on record as “more than 2.5 wt %”.

For `COc1cc(O)c(C(=O)c2ccccc2)cc1S(=O)(=O)O.O.O.O` [2-hydroxy-4-methoxybenzophenone-5-sulfonic acid trihydrate], in data set [3] (dissolved in a solvent, scaled by addition amount), the “absorbing ability of 0.8 g relative to 0.5 g of 4-dodecyloxy-2-hydroxybenzophenone” value is “about 1.3 times”. The “deposition in the form of powder” value in data set [1] is given as “none of these ultraviolet absorbers deposited in the form of powder”. Besides, in data set [2], the water solubility is reported as 25 wt %.

`CCCCCCCCCCCCOc1ccc(C(=O)c2ccccc2)c(O)c1` [4-dodecyloxy-2-hydroxybenzophenone, reference compound]: the “ultraviolet absorbing ability relative to 2-hydroxy-4-methoxybenzophenone-5-sulfonic acid trihydrate” value in data set [3] (equal amounts added, average in wavelength region 300 to 400 nm) was 1.25 times. Moreover, in data set [1], the “deposition in the form of powder” value was “deposits in the form of powder”.

On to `O=S(=O)([O-])c1ccc(O)c(N=Nc2c(O)ccc3ccccc23)c1.[Na+]` [Acid Alizarin Violet N], for which the “resistance to ultraviolet light with other dyes” value (shortened to “resistance to ultraviolet light”) in data set [4] is listed as “possible to increase the resistance to ultraviolet light”.

In the case of `O=C1c2ccccc2C(=O)c2c1ccc(O)c2O` [alizarin], the “resistance to ultraviolet light” value in data set [4] is on record as “possible to increase the resistance to ultraviolet light”.

Take `O=C(/C=C/c1ccccc1)c1ccccc1` [chalcone]: the “resistance to ultraviolet light” value in data set [4] is recorded as “possible to increase the resistance to ultraviolet light”.

For `Nc1ccc(C(=O)O)cc1` [p-aminobenzoic acid], the water solubility in data set [5] was 0.4 wt %.

With `O=C(Oc1ccccc1)c1ccccc1O` [phenyl salicylate], the water solubility in data set [5] is listed as 0.05 wt %.
